According to patent US7943646B2, “Benzamidine derivative, process for the preparation thereof and pharmaceutical composition comprising same” (Dong Wha Pharmaceutical Co., Ltd., priority 2006, dated 2011):
Where two headings read alike, the source gives them in different places.

Columns and labels:
[1] = test system: calvaria; experiment: Cytotoxicity test (MTT), calvaria; format: cell-based; conditions: 10^−6M, 72 hrs, in comparison with the control group
Method: (§1) The cytotoxic effect of the benzamidine derivative of the present invention was evaluated by carrying out the experiment described below.
(§2) The test substance was diluted in an appropriate solvent at a 10^−2 M concentration. This substance was diluted in an appropriate culture medium for the cells used in the cytotoxicity test to a concentration of […], and loaded into a 96-well plate in 100 μl per well. The cell lines to be used in the cytotoxicity test were plated on a 96-well plate in a dose of 1.0×10^4 cells/1OO μl per well and cultured for 72 hrs. 25 μl of MTT [3-(4,5-dimethyl-2-thiazolyl)-2,5-diphenyl-2H-tetrazolium bromide] dissolved in PBS (2 mg/mL) were added before 4 hrs of the end of culture. After completion of the reaction, the plates were centrifuged, the medium was discarded and 100 μl of DMSO was added to dissolve formazan. Finally, the absorbance of the developed plates was measured at 540 nm. The survival rates of the cells were expressed as % concentration values in comparison with the control group.

[2] = test system: HOS; experiment: Cytotoxicity test (MTT), HOS; format: cell-based; conditions: 10^−6M, 72 hrs, in comparison with the control group
Method: as §1, §2

[3] = test system: MC3T3; experiment: Cytotoxicity test (MTT), MC3T3; format: cell-based; conditions: 10^−6M, 72 hrs, in comparison with the control group
Method: as §1, §2

[4] = test system: osteoclast differentiation; experiment: Inhibitory effect on osteoclast differentiation, co-culture of bone marrow cells and osteoblast, TRAP staining; format: cell-based, mouse; conditions: for inhibition at 1 µM: Mus musculus, Osteoclast, 168 h, read-out: inhibitory effect on osteoclast differentiation(%)
Method: The effect of the benzamidine derivative of the present invention on osteoclast formation and differentiation process was evaluated via co-culture with an osteoblast.
Tibia was aseptically ectomized from male 6 to 8-week-old ddY mice to harvest bone marrow cells by using a syringe (21G, Korea Green Cross). The bone marrow cells were suspended in 5 mL of an α-MEM medium (Gibco BRL Co., added with sodium bicarbonate (2.0 g/L), streptomycin (100 mg/L) and penicillin ([…]), filtered and then sterilized). The harvested cells were centrifuged at 600×g for 5 mins to collect the whole quantity. To remove the red blood cells in the bone marrow cells, 3 mL of Tris HCl (0.83% NH4Cl, pH 7.5) was added and well mixed. After centrifuging above cells, the numbers of the eukaryotic cells in the harvested bone marrow cells were counted and then immediately used for a co-culture system.
The progenitor bone and the parietal bone were aseptically ectomized from 1 to 2-day-old neonate ICR mice, washed with a phosphate butter solution (PBS) and treated with a mixed enzyme solution (of 0.2% collagenase and 0.1% dispase) sequentially (10, 10, 10, 20, 20 and 20 min), and then 3 to 6 groups of the cells which comprise lot of cells having the characteristics of the osteoblast were intensively collected and washed with a medium (a serum-free α-MEM). The washed cells were cultured in the α-MEM medium containing 10% FBS for 2 to 3 days. After subculturing, the collected cells were used for this experiment, and diluted to a concentration of 1×10^6 cells/mL for storage at −70[…].
The benzamidine derivative of the present invention was dissolved in a sterile distilled water or ethanol to dilute to a desired concentration. The final volume of the sample added to the cell culture medium was set at a ratio of 1:1000.
The bone marrow cells prepared in the above 1-1 and the osteoblast were co-cultured for osteoclast differentiation. Both the bone marrow cells (25,000 cells/cm^2) and the osteoblast (10,000 cells/cm^2) were plated in a 96-well plate using α-MEM medium containing FBS, and then cultured with the samples to be tested for 7 days. Differentiation factors, such as dexamethasone (10^−7 M) and vitamin D3 (10^−8 M), were also co-added to the medium from the first day of cultivation. The medium was changed with a fresh media containing a mixture of the samples and the differentiation factors every 2 to 3 days.
TRAP was used as a marker to measure the matured osteoclast in consideration of its characteristics showing a positive reaction to a TRAP staining solution. The TRAP staining solution was prepared in such the manner that 5 mg of naphtol AS-MS phosphate (sigma N-4875) as a substrate, and 25 mg of a coloring agent (Fast Red Violet LB salt) were dissolved in N,N-dimethylformamide (about 0.5 mL). 50 ml of a 0.1 N NaHCO3 buffer solution containing 50 mM tartaric acid (pH 5.0) was added thereto, and the mixture was stored at a refrigerator prior to use as a staining solution.
After culturing the cells for 7 days, the medium was removed from the wells, the cells were once washed with PBS, and then fixed with PBS containing 10% formalin for 2 to 5 min. The cells were fixed again in a mixed solution of ethanol and acetone (1/1) for about 1 min, and dried off. The cells were further treated by the TRAP staining solution for 15 mins and washed with water and dried off. The osteoclasts with 3 or more nuclei showing a TRAP-positive reaction were counted under a microscopic examination. Each of tests was confirmed over at least three times. The inhibitory effect on osteoclast differentiation of each experimental group, relative to negative controls, was expressed as a percentage (%).

[5] = 1 μm, 7 days co-culture, TRAP-positive osteoclasts with 3 or more nuclei, relative to negative controls

Compound | survival rates of the cells [1] | survival rates of the cells [2] | survival rates of the cells [3] | inhibitory effect on osteoclast differentiation(%) [4, 5] | inhibition at 1 µM [4, 5] | inhibition at 1 µM [4]
N=C(NO)c1ccc(OCCCCCOc2ccc(-c3nc(-c4ccccc4)sc3CCN3CCOCC3)cc2)cc1 [Example 41, N-hydroxy-4-(5-{4-[5-(2-morpholin-4-yl-ethyl)-2-phenyl-thiazol-4-yl]-phenoxy}-pentloxy)-benzamidine] | 78.6% | 78.8% | 85.9% | 100% | – | –
CNc1nc(-c2ccc(OCCCCCOc3ccc(C(=N)NO)cc3)cc2)c(CCNCCCn2ccnc2)s1 [Example 51, N-hydroxy-4-[5-(4-{5-[2-(3-imidazol-1-yl-propylamino)-ethyl]-2-methylamino-thiazol-4-yl}-phenoxy)-pentyloxy]-benzamidine] | 91.7% | 99.6% | 93.8% | – | 32% | –
CN(C)CCc1sc(C2CCCCC2)nc1-c1ccc(OCCCCCOc2ccc(C(=N)NO)cc2)cc1 [Example 37, N-hydroxy-4-(5-{4-[2-cyclohexyl-5-(2-dimethylamino-ethyl)-thiazol-4-yl]-phenoxy}-pentyloxy)-benzamidine] | 84.7% | 116.7% | 94.9% | – | 100% | –
N=C(NO)c1ccc(OCCCCCOc2ccc(-c3nc(N(CCN4CCOCC4)Cc4ccccc4)sc3CCN3CCOCC3)cc2)cc1 [Example 56, N-hydroxy-4-(5-{4-[2-[benzyl-(2-morpholin-4-yl-ethyl)-amino]-5-(2-morpholin-4-yl-ethyl)-thiazol-4-yl]-phenoxy}-pentyloxy)-benzamidine] | 84.0% | 98.8% | 86.0% | – | 100% | –
N=C(NO)c1ccc(OCCCCCOc2ccc(-c3nc(N4CCOCC4)sc3CCNCCN3CCOCC3)cc2)cc1 [Example 62, N-hydroxy-4-[5-(4-{2-morpholin-4-yl-5-[2-(2-morpholin-4-yl-ethylamino)-ethyl]-thiazol-4-yl}-phenoxy)-pentyloxy]-benzamidine] | 92.7% | 95.1% | 97.0% | – | 43.6% | –
Cc1nc(-c2ccc(OCCCCCOc3ccc(C(=N)N)cc3)cc2)c(CCN2CCOCC2)s1 [Example 46, 4-(5-{4-[2-methyl-5-(2-morpholin-4-yl-ethyl)-thiazol-4-yl]-phenoxy}-pentyloxy)-benzamidine] | 99.9% | 94.1% | 95.3% | – | 63.4% | –
N=C(NO)c1ccc(OCCCCCOc2ccc(-c3nc(C4CCCCC4)sc3CCNCCN3CCOCC3)cc2)cc1 [Example 35, N-hydroxy-4-[5-(4-{2-cyclohexyl-5-[2-(2-morpholin-4-yl-ethylamino)-ethyl]-thiazol-4-yl}-phenoxy)-pentyloxy]-benzamidine] | 81.6% | 115.7% | 98.6% | – | – | 100%
CCN(CC)c1nc(-c2ccc(OCCCCCOc3ccc(C(=N)NO)cc3)cc2)c(CCN2CCOCC2)s1 [Example 57, N-hydroxy-4-(5-{4-[2-diethylamino-5-(2-morpholin-4-yl-ethyl)-thiazol-4-yl]-phenoxy}-pentyloxy)-benzamidine] | 87.0% | 90.7% | 86.8% | – | 100% | –
COCCN(CCOC)c1nc(-c2ccc(OCCCCCOc3ccc(C(=N)NO)cc3)cc2)c(CCN2CCOCC2)s1 [Example 58, N-hydroxy-4-(5-{4-[2-[bis-(2-methoxy-ethyl)-amino]-5-(2-morpholin-4-yl-ethyl)-thiazol-4-yl]-phenoxy}-pentyloxy)-benzamidine] | 76.8% | 85.4% | 79.2% | – | 100% | –
CCc1nc(-c2ccc(OCCCCCOc3ccc(C(=N)NO)cc3)cc2)c(CCN2CCOCC2)s1 [Example 42, N-hydroxy-4-(5-{4-[2-ethyl-5-(2-morpholin-4-yl-ethyl)-thiazol-4-yl]-phenoxy}-pentyloxy)-benzamidine] | 73.8% | 98.9% | 81.5% | – | 100% | –
CCc1nc(-c2ccc(OCCCCCOc3ccc(C(=N)NO)cc3)cc2)c(CCN2CCSCC2)s1 [Example 43, N-hydroxy-4-(5-{4-[2-ethyl-5-(2-thiomorpholin-4-yl-ethyl)-thiazol-4-yl]-phenoxy}-pentyloxy)-benzamidine] | 91.9% | 80.4% | 86.5% | – | 97.7% | –
CNc1nc(-c2ccc(OCCCCCOc3ccc(C(=N)NO)cc3)cc2)c(CCNCCN2CCOCC2)s1 [Example 50, N-hydroxy-4-[5-(4-{2-methylamino-5-[2-(2-morpholin-4-yl-ethylamino)-ethyl]-thiazol-4-yl}-phenoxy)-pentyloxy]-benzamidine] | 92.8% | 93.6% | 97.2% | – | 37% | –
CCCN(CCC)CCc1sc(C2CCCCC2)nc1-c1ccc(OCCCCCOc2ccc(C(=N)NO)cc2)cc1 [Example 38, N-hydroxy-4-(5-{4-[2-cyclohexyl-5-(2-dipropylamino-ethyl)-thiazol-4-yl]-phenoxy}-pentyloxy)-benzamidine] | 94.9% | 96.2% | 104.7% | – | 100% | –
N=C(NO)c1ccc(OCCCCCOc2ccc(-c3nc(C4CCCCC4)sc3CCNC3CC3)cc2)cc1 [Example 39, N-hydroxy-4-(5-{4-[2-cyclohexyl-5-(2-cyclopropylamino-ethyl)-thiazol-4-yl]-phenoxy}-pentyloxy)-benzamidine] | 93.1% | 111.0% | 85.0% | – | 100% | –
N=C(NO)c1ccc(OCCCCCOc2ccc(-c3nc(N)sc3CCNCCN3CCOCC3)cc2)cc1 [Example 40, N-hydroxy-4-[5-(4-{2-amino-5-[2-(2-morpholin-4-yl-ethylamino)-ethyl]-thiazol-4-yl}-phenoxy)-pentyloxy]-benzamidine] | 99.7% | 103.2% | 102.2% | – | 24.6% | –
